Like-named read-outs stand apart in the source and are kept apart here.
Assays:
lymphocytes = experiment: Lymphocyte reduction in MOG/CFA/Pertussis toxin-immunized C57/Bl6 mice; assay type: in vivo, C57Bl/6 mice; details: 0.3 mg/kg siponimod, 10 mg/kg laquinimod or both, daily for 29 days, from three days after first clinical symptoms; p<0.05
Description: Female C57Bl/6 mice were subcutaneously immunized with 200 μg recombinant MOG1-125 in CFA followed by one i.p. injection of 100 ng Pertussis toxin. Two days later an additional i.p. injection of 100 ng pertussis toxin was administered. Three days after the first clinical symptoms, the mice were randomized to either vehicle, 0.3 mg/kg siponimod, 10 mg/kg laquinimod or 0.3 mg/kg siponimod+10 mg/kg laquinimod and treated daily with said doses for 29 days. The MOG/CFA/Pertussis toxin-induced experimental autoimmune encephalomyelitis model in C57/Bl6 mice is described in Quancard et al (Chem Biol. 19(9):1142-51, 2012).

RRMS [1] = details: phase III, oral 0.6 mg once daily over 24 months; cited from earlier work
[2] = tested on: experimental autoimmune encephalomyelitis (EAE); experiment: MOG/CFA/Pertussis toxin-induced EAE, treatment initiated during ongoing CNS damage; assay type: in vivo, C57Bl/6 mice; details: 0.3 mg/kg siponimod, 10 mg/kg laquinimod or both, daily for 21 days after infiltration of immune cells into CNS; p<0.05
Description: Female C57Bl/6 mice were subcutaneously immunized with 200 μg recombinant MOG1-125 in CFA followed by one i.p. injection of 100 ng Pertussis toxin. Two days later an additional i.p. injection of 100 ng pertussis toxin was administered. Following infiltration of immune cells into the CNS to initiate tissue damage, the mice were randomized to either vehicle, 0.3 mg/kg siponimod, 10 mg/kg laquinimod or 0.3 mg/kg siponimod+10 mg/kg laquinimod and treated daily with said doses for 21 days.

[3] = tested on: experimental autoimmune encephalomyelitis (EAE); experiment: MOG/CFA/Pertussis toxin-induced EAE, treatment initiated after severe CNS damage; assay type: in vivo, C57Bl/6 mice; details: 0.3 mg/kg siponimod, 10 mg/kg laquinimod or both, daily for 30 days, from three days after first clinical symptoms; p<0.05
Description: Female C57Bl/6 mice were subcutaneously immunized with 200 μg recombinant MOG1-125 in CFA followed by one i.p. injection of 100 ng Pertussis toxin. Two days later an additional i.p. injection of 100 ng pertussis toxin was administered. Three days after the first clinical symptoms, the mice were randomized to either vehicle, 0.3 mg/kg siponimod, 10 mg/kg laquinimod or 0.3 mg/kg siponimod+10 mg/kg laquinimod and treated daily with said doses for 30 days. Treatment initiated after severe CNSneurological disease and tissue damage has occurred. More specifically after that a severe CNS damage, which can be characterized by hind limb paralysis, had already occurred.

[4] = Level of siponimod in blood, brain and cerebrospinal fluid (CSF) in mice; assay type: in vivo; details: female, mouse, C57Bl/6 mice, mean (SEM)
Description: Female C57Bl/6 mice were treated daily with 3 mg/kg siponimod, p.o. for 8 days. 8 hours after the last administration, animals were sacrificed and the levels of siponimod were measured in blood, brain and CSF.
Shown are mean values of 3-5 animals and standard error of the mean (in brackets).

RRMS [5] = details: phase II, oral doses of 0.25 mg, 0.5 mg, 1.25 mg, 2 mg and 10 mg; cited from earlier work

Row | Compound | effect on lymphocytes (FIG. 1) (lymphocytes) | efficacy in treating RRMS (RRMS [1]) | daily disease severity / neurological paralysis / disease burden (FIG. 4) [2] | disease burden (cumulative EAE score) (FIG. 2) [3] | concentration at 8 h ([4]; CSF, oral, EAE, 3 mg/kg qd, day 8, 8 h, read-out: conc siponimod (nM) (SEM) CSF) | concentration at 8 h ([4]; CSF, po, 3 mg/kg qd p.o., day 8, 8 h after last administration, read-out: conc siponimod (nM) (SEM) CSF) | concentration at 8 h ([4]; blood, oral, EAE, 3 mg/kg qd, day 8, 8 h, read-out: conc siponimod (nM) (SEM) Blood) | concentration at 8 h ([4]; blood, po, 3 mg/kg qd p.o., day 8, 8 h after last administration, read-out: conc siponimod (nM) (SEM) Blood) | concentration at 8 h ([4]; brain, oral, EAE, 3 mg/kg qd, day 8, 8 h, read-out: conc siponimod (nM) (SEM) Brain) | concentration at 8 h ([4]; brain, po, 3 mg/kg qd p.o., day 8, 8 h after last administration, read-out: conc siponimod (nM) (SEM) Brain) | efficacy in treating RRMS (RRMS [5])
1 | CCN(C(=O)c1c(O)c2c(Cl)cccc2n(C)c1=O)c1ccccc1 [laquinimod, 5-chloro-N-ethyl-4-hydroxy-1-methyl-2-oxo-N-phenyl-1,2-dihydroquinoline-3-carboxamide] | did not significantly reduce lymphocytes | showed efficacy | did not significantly improve daily disease severity | did not significantly improve disease burden |  |  |  |  |  |  | 
2 | CCc1cc(/C(C)=N/OCc2ccc(C3CCCCC3)c(C(F)(F)F)c2)ccc1CN1CC(C(=O)O)C1 [siponimod, 1-{4-[1-((E)-4-cyclohexyl-3-trifluoromethyl-benzyloxyimino)-ethyl]-2-ethyl-benzyl}-azetidine-3-carboxylic acid] | reduced lymphocytes |  | transiently reduced neurological paralysis | reduced disease burden | 17.7 | 7.2 | 1600 | 973 | 9190 | 5550 | dose-dependent efficacy

From patent publication US10537566B2, “Combinations comprising siponimod and laquinimod for the treatment of multiple sclerosis” (Novartis AG, priority 2014, dated 2020)
